{"source": "paper PMC9851200", "about": "“Multiparameter phenotypic screening for endogenous TFEB and TFE3 translocation identifies novel chemical series modulating lysosome function” (Autophagy, 2022)", "origin": "cited, not measured here", "set-up_in_all_cases": "method as in original PKIS2 published data", "key": {"[1]": {"target": "T1, kinases (KINOMEscan panel) (Homo sapiens, UniProt Q9NWZ3)", "T1 sequence (Q9NWZ3 1-460)": "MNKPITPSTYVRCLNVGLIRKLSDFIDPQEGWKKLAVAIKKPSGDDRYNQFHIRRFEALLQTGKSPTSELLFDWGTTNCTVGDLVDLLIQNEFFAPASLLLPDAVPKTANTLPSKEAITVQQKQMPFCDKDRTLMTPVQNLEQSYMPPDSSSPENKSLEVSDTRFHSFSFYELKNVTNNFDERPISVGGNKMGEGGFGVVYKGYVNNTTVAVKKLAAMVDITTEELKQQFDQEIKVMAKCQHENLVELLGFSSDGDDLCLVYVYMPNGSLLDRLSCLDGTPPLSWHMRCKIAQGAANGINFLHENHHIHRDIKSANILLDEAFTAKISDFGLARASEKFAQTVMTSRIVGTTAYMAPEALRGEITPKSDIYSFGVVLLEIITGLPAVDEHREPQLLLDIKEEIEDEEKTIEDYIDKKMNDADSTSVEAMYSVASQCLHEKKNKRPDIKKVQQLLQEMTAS", "conditions": "IRAK4; Published KINOMEscan; ref original PKIS2 published data; cited from earlier work"}, "[2]": {"target": "T2, kinases (KINOMEscan panel) (Homo sapiens, UniProt Q6ZN16)", "T2 sequence (Q6ZN16 1-1313)": "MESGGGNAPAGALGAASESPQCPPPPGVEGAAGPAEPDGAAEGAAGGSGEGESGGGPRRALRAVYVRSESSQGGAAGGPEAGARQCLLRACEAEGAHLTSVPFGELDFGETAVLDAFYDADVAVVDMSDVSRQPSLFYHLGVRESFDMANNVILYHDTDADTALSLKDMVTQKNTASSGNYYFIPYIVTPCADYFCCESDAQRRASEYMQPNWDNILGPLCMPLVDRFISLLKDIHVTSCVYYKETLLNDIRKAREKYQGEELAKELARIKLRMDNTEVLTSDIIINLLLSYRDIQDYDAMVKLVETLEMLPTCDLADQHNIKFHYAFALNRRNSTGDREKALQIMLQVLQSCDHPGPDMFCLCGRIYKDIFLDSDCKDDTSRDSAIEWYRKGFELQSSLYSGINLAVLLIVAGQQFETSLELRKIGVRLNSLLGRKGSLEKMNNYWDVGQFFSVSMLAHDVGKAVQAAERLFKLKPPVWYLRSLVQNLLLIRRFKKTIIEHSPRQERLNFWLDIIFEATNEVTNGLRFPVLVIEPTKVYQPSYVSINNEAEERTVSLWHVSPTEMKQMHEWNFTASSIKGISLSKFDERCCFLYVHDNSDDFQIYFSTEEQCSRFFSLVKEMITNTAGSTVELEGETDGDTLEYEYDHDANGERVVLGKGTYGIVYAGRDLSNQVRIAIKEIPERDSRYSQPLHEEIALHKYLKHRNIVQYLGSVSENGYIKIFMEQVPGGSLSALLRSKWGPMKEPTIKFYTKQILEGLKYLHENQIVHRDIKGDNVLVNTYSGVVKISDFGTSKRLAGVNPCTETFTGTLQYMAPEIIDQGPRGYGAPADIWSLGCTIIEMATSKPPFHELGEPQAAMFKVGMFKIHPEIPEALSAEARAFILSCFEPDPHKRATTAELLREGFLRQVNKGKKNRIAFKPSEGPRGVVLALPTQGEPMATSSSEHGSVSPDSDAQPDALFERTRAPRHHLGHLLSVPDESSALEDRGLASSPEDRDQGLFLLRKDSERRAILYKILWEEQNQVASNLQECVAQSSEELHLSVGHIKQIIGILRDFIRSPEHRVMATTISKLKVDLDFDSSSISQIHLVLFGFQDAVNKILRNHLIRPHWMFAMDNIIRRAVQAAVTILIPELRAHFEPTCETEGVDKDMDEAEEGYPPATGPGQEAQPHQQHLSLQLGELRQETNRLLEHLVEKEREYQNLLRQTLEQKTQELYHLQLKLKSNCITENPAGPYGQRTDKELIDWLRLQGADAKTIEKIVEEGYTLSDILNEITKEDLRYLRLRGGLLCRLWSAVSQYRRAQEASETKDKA", "conditions": "Published KINOMEscan; ref original PKIS2 published data; cited from earlier work"}, "[3]": {"target": "kinases (KINOMEscan panel) (Homo sapiens, UniProt Q13554)", "sequence (Q13554 whole entry)": "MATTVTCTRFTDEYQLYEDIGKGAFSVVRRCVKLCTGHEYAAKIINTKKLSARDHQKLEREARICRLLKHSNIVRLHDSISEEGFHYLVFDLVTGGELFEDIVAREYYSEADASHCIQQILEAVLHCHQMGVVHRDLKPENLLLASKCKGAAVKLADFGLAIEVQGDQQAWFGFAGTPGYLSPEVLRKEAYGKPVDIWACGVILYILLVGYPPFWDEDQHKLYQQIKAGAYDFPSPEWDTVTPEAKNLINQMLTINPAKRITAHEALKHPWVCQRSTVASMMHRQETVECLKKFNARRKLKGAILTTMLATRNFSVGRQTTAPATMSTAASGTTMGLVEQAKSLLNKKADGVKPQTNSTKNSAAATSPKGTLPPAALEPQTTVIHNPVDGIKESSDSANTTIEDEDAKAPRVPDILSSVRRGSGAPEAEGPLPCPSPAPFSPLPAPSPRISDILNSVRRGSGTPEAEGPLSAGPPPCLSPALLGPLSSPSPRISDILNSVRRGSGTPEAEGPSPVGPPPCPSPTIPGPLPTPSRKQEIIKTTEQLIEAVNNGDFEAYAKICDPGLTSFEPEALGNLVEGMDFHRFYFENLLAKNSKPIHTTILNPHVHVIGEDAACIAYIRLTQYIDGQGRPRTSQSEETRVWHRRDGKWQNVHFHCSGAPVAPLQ", "conditions": "kinase CAMK2B; Published KINOMEscan; ref original PKIS2 published data; cited from earlier work"}, "[4]": {"target": "kinases (KINOMEscan panel) (Homo sapiens, UniProt Q00532)", "sequence (Q00532 whole entry)": "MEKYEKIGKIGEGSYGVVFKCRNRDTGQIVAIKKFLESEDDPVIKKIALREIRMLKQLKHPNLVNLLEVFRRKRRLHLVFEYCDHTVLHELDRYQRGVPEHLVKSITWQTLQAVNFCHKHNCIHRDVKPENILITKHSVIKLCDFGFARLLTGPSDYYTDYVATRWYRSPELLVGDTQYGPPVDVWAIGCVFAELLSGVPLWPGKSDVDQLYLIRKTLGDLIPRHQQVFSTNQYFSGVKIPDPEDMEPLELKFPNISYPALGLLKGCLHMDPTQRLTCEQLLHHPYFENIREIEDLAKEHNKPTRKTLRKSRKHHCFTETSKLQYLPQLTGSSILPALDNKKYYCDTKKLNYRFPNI", "conditions": "CDKL1; Published KINOMEscan; ref original PKIS2 published data; cited from earlier work"}}, "data": [{"smiles": "Cc1cccc(-c2nc(Nc3ccncc3)c3ccccc3n2)n1", "note": "[NK215]", "values": [{"measurement": "KINOMEscan IRAK4", "setting": "[1]", "result": 0}, {"measurement": "KINOMEscan MAP3K15", "setting": "[2]", "result": 0}, {"measurement": "KINOMEscan CAMK2B", "setting": "[3]", "result": 0}, {"measurement": "KINOMEscan CDKL1", "setting": "[4]", "result": 47}]}]}
